Assays:
Format in all cases: cell-based, E. coli strain PQ37
[1] = tested on: sfiA::operon lacZ recombinant; conditions: FIG. 1 curve c; measured 2 hours after the start of the experiment; inhibitory concentrations
Excerpt: FIGS. 2 and 3 contain the curves representing the variations of the logarithm of the abovesaid ratio, named below SOSIF (abbreviation of "SOS induction factor"), measurable in similar cultures, in the presence of different genotoxic substances, according to their respective concentrations in the culture media, in nanomoles per specimen tested.
(§1) The micro-organism employed in the tests whose description follows is a transformed E. coli strain, named PQ37, deposited in the National Collection of Culture Micro-Organisms (C.N.C.M.) of the Pasteur Institute of Paris, under no. I-205 on the date of Sept. 24, 1982. The genetic characteristics of this micro-organism are as follows: F^- thr leu his-4 pyrD thi galE galK or T lacΔUI69 srl 300::Tn10 rpoB rpsL uvrA rfa trp::Muc^+ sfiA::Mud(AP, lac)c-Ts. It is constitutive for the synthesis of the alkaline phosphatase (Pho^c). […]
A culture of the abovesaid micro-organism previously developed up to the exponential phase in LB culture medium (Bacto tryptone 10 g, Bacto yeast extract 5 g, NaC1 10 g, water Q.S.P. 1 1), also containing ampicillin, is diluted ten times either in fresh medium, or in the activation mixture described by AMES B.N. and Coll. […] After two hours incubation at 37° C. with shaking, the β-galoactosidase and alkaline phosphatase activities were determined. […]

β-galactosidase = β-galactosidase activity in E. coli PQ37 culture; conditions: FIG. 1 curve a; beyond a certain concentration of genotoxic substance; 2 hours
Excerpt: The micro-organism employed in the tests whose description follows is a transformed E. coli strain, named PQ37, deposited in the National Collection of Culture Micro-Organisms (C.N.C.M.) of the Pasteur Institute of Paris, under no. I-205 on the date of Sept. 24, 1982. The genetic characteristics of this micro-organism are as follows: F^- thr leu his-4 pyrD thi galE galK or T lacΔUI69 srl 300::Tn10 rpoB rpsL uvrA rfa trp::Muc^+ sfiA::Mud(AP, lac)c-Ts. It is constitutive for the synthesis of the alkaline phosphatase (Pho^c).
This strain has been obtained by genetic recombinations suitable to confer on it the above-indicated genotype, from the strain containing the recombinant sfiA::lacZ deposited at the C.N.C.M., under no. I-152 Apr. 13, 1981.
A culture of the abovesaid micro-organism previously developed up to the exponential phase in LB culture medium (Bacto tryptone 10 g, Bacto yeast extract 5 g, NaC1 10 g, water Q.S.P. 1 1), also containing ampicillin, is diluted ten times either in fresh medium, or in the activation mixture described by AMES B.N. and Coll. (1975), "Mutation Research" 31, 347-364. Aliquot parts of 0.6 ml are distributed in glass test tubes each containing a certain dose of the substance under test. After two hours incubation at 37° C. with shaking, the β-galoactosidase and alkaline phosphatase activities were determined. […]

alkaline phosphatase = alkaline phosphatase activity in E. coli PQ37 culture; conditions: FIG. 1 curve b; beyond a certain concentration of genotoxic substance; 2 hours
Excerpt: as §1
A culture of the abovesaid micro-organism previously developed up to the exponential phase in LB culture medium (Bacto tryptone 10 g, Bacto yeast extract 5 g, NaC1 10 g, water Q.S.P. 1 1), also containing ampicillin, is diluted ten times either in fresh medium, or in the activation mixture described by AMES B.N. and Coll. […] After two hours incubation at 37° C. with shaking, the β-galoactosidase and alkaline phosphatase activities were determined.
It is possible in particular to carry out the determination of the alkaline phosphatase under the following condition: 2.7 ml of T buffer (solution of 121 g of Tris (hydroxy-methyl)-aminomethane per liter, whose pH has been adjusted to 8.8 with HC1) were added to 0.3 ml of the cell culture. […] 5 minutes later, 1 ml of 2 N Tris is added to restore the color, which is measured in the spectrophotometer at 420 nm. […]

Compound: O=[N+]([O-])c1cc[n+]([O-])c2ccccc12 [4NQO, 4-nitroquinoline-1-oxide]
- SOSIF ratio at concentrations of the genotoxic substance which inhibit the synthesis of the proteins [1]: remains substantially constant
- β-galactosidase activity (inhibiting effect of the synthesis of the proteins) (β-galactosidase): reduction
- alkaline phosphatase activity (inhibiting effect of the synthesis of the proteins) (alkaline phosphatase): reduction
